Results reported in publication PMC5562305, “Impact of novel palmitoylated prolactin-releasing peptide analogs on metabolic changes in mice with diet-induced obesity” (PLoS ONE, 2017).
Starred links: 1 amine or outer side, 2 acyl side, 3 side chain; linkers in the order of their positions; H or OH if unused. Residues, ends and D or L forms follow the SMILES beside them. Groups on a side chain read outwards from the residue. *: point of attachment. TTDA(Palmitoyl) = CCCCCCCCCCCCCCCC(=O)NCCCOCCOCCOCCCN*; Suc = O=C(CCC(=O)[*:2])[*:1]

System: urinary metabolites
Assay: NMR-based metabolomics of urine of DIO mice
Format: in vivo, C57BL/6 mice
Parameters: key to DMA, Mean / DMG, Mean / MA, Mean / TMA, Mean / acetate, Mean / allantoin, Mean / carnitine, Mean / choline, Mean / cis-aconitate, Mean / creatine+creatinine, Mean / creatine, Mean / creatinine, Mean / ethanolamine, Mean / formate, Mean / galactose, Mean / glucose, Mean / glycine, Mean / lactate, Mean / succinate, Mean / vinylacetylglycine, Mean: TSA-normalized intensity of the metabolite's representative NMR signal
Conditions: urine of DIO mice, NMR metabolomics
Protocol: Urine samples for NMR-based metabolomics were collected prior to the start of the interventions and at the end of the experiment. For overnight urine collection (from 5 pm to 8 am), the mice were housed in individual metabolic cages (Tecniplast, Buguggiate, Italy) without access to food. Samples were collected with the addition of NaN3 and stored at -80°C until NMR analysis.
The urine samples were thawed at room temperature and centrifuged at 13 684 x g for 5 min prior to the NMR experiments. A 200-μl aliquot of supernatant was diluted with 340 μl of H2O mixed with 60 μl of phosphate buffer (1.5 M KH2PO4 in D2O containing 2 mM NaN3 and 0.1% trimethylsilyl propionic acid (TSP), pH 7.4) and transferred to a 5-mm NMR tube. The NMR data were acquired with a 600 MHz Bruker Avance III spectrometer (Bruker BioSpin, Rheinstetten, Germany) equipped with a 5-mm TCI cryogenic probe head. All of the experiments were performed at 300 K. Automatic tuning, matching, shimming and adjusting of the 90° pulse length were performed for each sample.
As mouse urine naturally contains urinary proteins, the NMR spectra were acquired using a Carr-Purcell-Meiboom-Gill (CPMG) pulse sequence with water presaturation (Bruker pulse sequence cpmgpr1d) to eliminate the strong protein background. […] For better metabolite identification, a short J-resolved experiment with presaturation (NS = 2, SW = 16 ppm, TD = 8k, number of increments = 40, SW = 78.125 Hz in the indirect dimension, and relaxation delay = 2 s) was executed for all samples. Additional two-dimensional ^1H-^1H correlation spectroscopy (COSY) and ^1H-^13C heteronuclear multiple-quantum correlation (HMQC) experiments (Bruker pulse sequences cosygpprqf and hmqcphpr) were performed for selected samples.
The acquired data were processed using Topspin 3.2 software (Bruker BioSpin, Rheinstetten, Germany). Line broadening of 0.3 Hz was applied on free induction decays (FIDs) prior to Fourier transformation. The spectra were automatically phased, baseline corrected and referenced to the signal of TSP (0.00 ppm).
The assignment of individual metabolites was achieved by comparing the proton spectra with the spectra of pure metabolites using Chenomx NMR Suite 7.6 (Chenomx Inc., Edmonton, AB, Canada), the HMDB database and previously published metabolomic data. The identification of metabolites was supported through J-resolved and COSY experiments and, if possible, confirmed using carbon chemical shifts extracted from the HMQC spectra.
For quantitation of individual metabolites, the CPMG spectra were uniformly binned in the range of 0.10–10.00 ppm to 0.01-ppm intervals using AMIX software (Bruker BioSpin, Rheinstetten, Germany). This procedure reduced the dimensionality of the data, eliminated chemical shift variations and thus simplified the reproducible automatic quantification. Regions corresponding to water (4.60–4.90 ppm) and urea (5.60–6.00 ppm) were removed prior to analysis. As the dilutions of the original urine samples differed (due to the differences in water intake during urine collection), all of the spectra were normalized to the total spectral area (TSA). For each identified metabolite, one representative signal was chosen and then quantified as the sum of appropriate adjacent 0.01-ppm bins to cover the whole signal width. The metabolite concentration was expressed as the TSA-normalized intensity of the respective signal. For selection of an appropriate statistical method (parametric or non-parametric) the Lilliefors test of normality was performed. […] Metabolite alterations with a P < 0.05 were considered statistically significant. Statistical analysis was performed using Matlab software (“MATLAB version 8.6 (R2015b). Natick, Massachusetts: The MathWorks Inc., 2015.,” n.d.). […]

[1] = difference of analog mean vs saline mean

For `CCCCCCCCCCCCCCCC(=O)NCCCOCCOCCOCCCNC(=O)CCC(=O)NCCCC[C@H](NC(=O)[C@@H](NC(=O)[C@H](CCC(=O)O)NC(=O)[C@H](CCSC)NC(=O)[C@H](CO)NC(=O)[C@H](Cc1c[nH]cn1)NC(=O)[C@H](CCCNC(=N)N)NC(=O)[C@H](Cc1c[nH]cn1)NC(=O)[C@@H](NC(=O)[C@H](CCCNC(=N)N)NC(=O)[C@H](CO)NC(=O)CCC(=O)NCCCOCCOCCOCCCNC(=O)CCCCCCCCCCCCCCC)[C@@H](C)O)[C@@H](C)CC)C(=O)N[C@H](C(=O)N1CCC[C@H]1C(=O)N[C@@H](CC(=O)O)C(=O)N[C@H](C(=O)N[C@@H](CC(N)=O)C(=O)N1CCC[C@H]1C(=O)N[C@@H](C)C(=O)N[C@@H](Cc1c[nH]c2ccccc12)C(=O)N[C@@H](Cc1ccc(O)cc1)C(=O)N[C@@H](C)C(=O)N[C@@H](CO)C(=O)N[C@@H](CCCNC(=N)N)C(=O)NCC(=O)N[C@H](C(=O)N[C@@H](CCCNC(=N)N)C(=O)N1CCC[C@H]1C(=O)N[C@H](C(=O)NCC(=O)N[C@@H](CCCNC(=N)N)C(=O)N[C@@H](Cc1ccccc1)C(N)=O)C(C)C)[C@@H](C)CC)[C@@H](C)CC)[C@@H](C)O` [analog 3] ({TTDA(Palmitoyl)-Suc}-SRTHRHSMEIK([Suc-TTDA(Palmitoyl)])TPDINPAWYASRGIRPVGRF-NH2), the “creatine, Saline/analog %” value [1] was 0.053%, the “creatinine, Saline/analog %” value [1] was 0.053% and the “ethanolamine, Saline/analog %” value [1] was 0.053%. The “formate, Saline/analog %” value [1] was 0.00334%, the “fumarate, Saline/analog %” value [1] was -0.141% and the “galactose, Saline/analog %” value [1] was -0.254%. The “glucose, Saline/analog %” value [1] was -0.116%, the “glycine, Saline/analog %” value [1] was -0.035% and the “hexanoylglycine + acids (0.88 ppm), Saline/analog %” value [1] was 0.165%. For the same molecule, the “hippurate (7.55 ppm), Saline/analog %” value [1] was -0.140%, the “hippurate (7.64 ppm), Saline/analog %” value [1] was -0.133% and the “hippurate (7.84 ppm), Saline/analog %” value [1] was -0.124%. The “lactate, Saline/analog %” value [1] was 0.112%, the “multiplet acids (1.6 ppm), Saline/analog %” value [1] was 0.172% and the “putrescin, Saline/analog %” value [1] was -0.021%. For the same molecule, the “succinate, Saline/analog %” value [1] was -0.140%, the “taurine (3.27 ppm), Saline/analog %” value [1] was -0.063% and the “taurine (3.43 ppm), Saline/analog %” value [1] was -0.093%. The “trigonelline (8.84 ppm), Saline/analog %” value [1] was -0.159%, the “trigonelline (9.13 ppm), Saline/analog %” value [1] was -0.171% and the “vinylacetylglycine, Saline/analog %” value [1] was 0.175%. For the same molecule, the “2-OG (2.45 ppm), Mean” value (group mean) was 11.878, the “2-OG (3.01 ppm), Mean” value (group mean) was 10.469 and the “2-PY (8.33 ppm), Mean” value (group mean) was 1.098. For the same molecule, the “3-indoxylsulfate (7.51 ppm), Mean” value (group mean) was 1.344, the “3-indoxylsulfate (7.71 ppm), Mean” value (group mean) was 0.810 and the “4-PY (7.97 ppm), Mean” value (group mean) was 2.017. For the same molecule, the “4-PY (8.55 ppm), Mean” value (group mean) was 0.633, the “DMA, Mean” value (group mean) was 5.618 and the “DMG, Mean” value (group mean) was 1.853. For the same molecule, the “MA, Mean” value (group mean) was 3.016, the “MNA (8.90 ppm), Mean” value (group mean) was 0.487 and the “MNA (8.97 ppm), Mean” value (group mean) was 0.470. For the same molecule, the “MNA (9.265 ppm), Mean” value (group mean) was 0.490, the “MNA-Nox (7.75 ppm), Mean” value (group mean) was 0.972 and the “MNA-Nox (8.13 ppm), Mean” value (group mean) was 0.792. For the same molecule, the “MNA-Nox (8.49 ppm), Mean” value (group mean) was 0.511, the “MNA-Nox (8.75 ppm), Mean” value (group mean) was 0.485 and the “N-carbamoylalanine (2.38 ppm), Mean” value (group mean) was 11.854. For the same molecule, the “N-carbamoylalanine (3.31 ppm), Mean” value (group mean) was 9.499, the “N-isovalerylglycine + oxovalerate (0.92 ppm), Mean” value (group mean) was 16.056 and the “TMA, Mean” value (group mean) was 11.780. For the same molecule, the “acetate, Mean” value (group mean) was 3.429, the “allantoin, Mean” value (group mean) was 22.447 and the “carnitine, Mean” value (group mean) was 6.067. For the same molecule, the “choline, Mean” value (group mean) was 1.970, the “cis-aconitate, Mean” value (group mean) was 8.481 and the “citrate (2.55 ppm), Mean” value (group mean) was 29.434. The “citrate (2.69 ppm), Mean” value (group mean) was 26.220, the “creatine+creatinine, Mean” value (group mean) was 24.904 and the “creatine, Mean” value (group mean) was 7.343. The “creatinine, Mean” value (group mean) was 11.686, the “ethanolamine, Mean” value (group mean) was 8.370 and the “formate, Mean” value (group mean) was 0.199. The “fumarate, Mean” value (group mean) was 0.151, the “galactose, Mean” value (group mean) was 0.578 and the “glucose, Mean” value (group mean) was 3.207. The “glycine, Mean” value (group mean) was 5.874, the “hexanoylglycine + acids (0.88 ppm), Mean” value (group mean) was 15.361 and the “hippurate (7.55 ppm), Mean” value (group mean) was 3.987. For the same molecule, the “hippurate (7.64 ppm), Mean” value (group mean) was 2.057, the “hippurate (7.84 ppm), Mean” value (group mean) was 4.311 and the “lactate, Mean” value (group mean) was 6.853. For the same molecule, the “multiplet acids (1.6 ppm), Mean” value (group mean) was 12.521, the “putrescin, Mean” value (group mean) was 8.726 and the “succinate, Mean” value (group mean) was 9.267. For the same molecule, the “taurine (3.27 ppm), Mean” value (group mean) was 24.146, the “taurine (3.43 ppm), Mean” value (group mean) was 20.508 and the “trigonelline (8.84 ppm), Mean” value (group mean) was 0.263. The “trigonelline (9.13 ppm), Mean” value (group mean) was 0.106 and the “vinylacetylglycine, Mean” value (group mean) was 3.527.
